Measurements as given in US20180289692A1, “TLR MODULATORS AND METHODS OF USE” (CELGENE CORPORATION, priority 2015, published 2018).
Read-outs that look alike come from different tables or passages of the source. Oligonucleotides are written 5' to 3', each unit as a sugar letter and its base; * is a phosphorothioate linkage, no mark a phosphodiester; rarer units and linkages stand in square brackets, end groups in braces. Plain capitals give the bases only. d = 2'-deoxy (DNA)

Columns and labels:
TLR7 = target: T1, TLR7 (Homo sapiens, UniProt Q9NYK1); test: Inhibition of TLR7 (imiquimod)-induced IFNα and IP10 (CXCL10) in PBMCs; assay type: cell-based
T1 construct: endogenous in cells; host or cells: human PBMCs from healthy donors
T1 sequence (Q9NYK1 27-1049): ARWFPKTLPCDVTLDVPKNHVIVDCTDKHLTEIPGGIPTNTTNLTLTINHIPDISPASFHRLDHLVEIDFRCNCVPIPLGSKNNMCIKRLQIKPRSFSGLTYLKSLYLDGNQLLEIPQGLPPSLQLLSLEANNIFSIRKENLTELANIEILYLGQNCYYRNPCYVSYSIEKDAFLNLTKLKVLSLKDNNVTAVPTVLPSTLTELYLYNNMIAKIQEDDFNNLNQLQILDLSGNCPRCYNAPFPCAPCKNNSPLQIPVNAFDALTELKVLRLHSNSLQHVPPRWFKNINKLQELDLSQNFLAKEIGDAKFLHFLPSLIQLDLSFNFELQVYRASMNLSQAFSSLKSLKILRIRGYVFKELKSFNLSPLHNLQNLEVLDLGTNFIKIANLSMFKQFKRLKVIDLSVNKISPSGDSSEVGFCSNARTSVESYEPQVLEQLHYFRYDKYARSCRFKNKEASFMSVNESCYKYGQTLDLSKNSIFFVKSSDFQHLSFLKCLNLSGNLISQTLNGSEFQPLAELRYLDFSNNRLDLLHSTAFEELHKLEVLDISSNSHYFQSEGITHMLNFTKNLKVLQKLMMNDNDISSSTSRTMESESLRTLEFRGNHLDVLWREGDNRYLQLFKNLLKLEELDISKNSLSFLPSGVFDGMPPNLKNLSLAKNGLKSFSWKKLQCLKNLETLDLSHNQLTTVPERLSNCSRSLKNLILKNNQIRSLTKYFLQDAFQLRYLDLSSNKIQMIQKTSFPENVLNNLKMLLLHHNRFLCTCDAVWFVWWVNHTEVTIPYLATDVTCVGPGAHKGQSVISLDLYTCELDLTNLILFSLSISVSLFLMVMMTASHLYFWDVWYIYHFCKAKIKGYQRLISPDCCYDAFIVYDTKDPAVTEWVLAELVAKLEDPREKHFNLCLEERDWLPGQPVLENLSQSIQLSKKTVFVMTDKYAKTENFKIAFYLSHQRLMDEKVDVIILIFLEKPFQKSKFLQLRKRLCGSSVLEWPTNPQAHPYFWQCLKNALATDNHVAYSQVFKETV
Description: After 24 hours, the supernatant was harvested and tested for IFNα using MagPix Multi-Plex technology.

purified human pDCs = test: pDC differentiation, differentiation markers CD86, CD83, CCR6, CCR7 by flow cytometry; assay type: cell-based; design: key: (↑) indicates a weak but detectable activity; (↑↑) and (↑↑↑) indicate different levels of moderate activities; (↑↑) and (↑↑↑) indicate different levels of moderate activities; (↑↑↑↑) indicates a strong activity; (−) indicates no detectable activity; details: relative strength, Table 6
human PBMCs = test: IL-1β secretion from human PBMCs by ELISA (inflammasome activation); assay type: cell-based; details: 24 hours, FIG. 15
[1] = test system: ulcerative colitis patients; details: clinical studies, subset of UC patients; cited from earlier work
mouse macrophages = test: TNFα and IL-10 production in mouse macrophages (Raw Blue cells), MagPix; assay type: cell-based; details: 24 hrs
Description: Mouse Raw Blue Reporter Cells (Invivogen) were plated in 96-well plates at 50,000 cells/well in DMEM Media supplemented with 10% FBS, 2 mM L-glutamine, 1% Pen/Strep, […] Normacin. […] The supernatant was harvested and tested for TNFα and IL-10 production using MagPix Multi-Plex technology.

human purified pDCs = test: IFN-α secretion from purified human pDCs by ELISA; assay type: cell-based
Description: By contrast, ODN2006 induced IFN-α secretion from purified and matured pDCs, and ODN150 and ODN7040 induced IFN-α secretion from matured pDCs.

[2] = test system: canonical NF-κB promoter reporter; test: Canonical NF-κB promoter reporter construct in RAW264.7 macrophage cells (FIG. 10); assay type: cell-based, mouse; details: 24 hrs
Description: Mouse RAW264.7 macrophage cells containing a reporter construct driven by a canonical NF-κB promoter were plated in 96-well plates at 50,000 cells/well. […] The supernatant was harvested and tested for optical density.

human pDCs = test: Intracellular IL-10, TGF-β1 and IDO expression in CCR6+CD123+ human pDCs by FACS; assay type: cell-based; details: 24 hrs, FIG. 2A
Description: To evaluate intracellular IL-10, TGFβ 1 and IDO expression in human pDCs, the cells were first stained with PECY-7-labeled anti-human CCR6 mAb (BD Biosciences), PerCP-Cy5.5 labeled anti-human CD123 mAb (BD Biosciences). Stained cells were then fixed and permeabilized using a Cytofix/Cytoperm kit (BD Biosciences) according to the manufacturer's instructions and stained with PE-labeled anti-human IDO (Biolegend), APC-labeled anti-human IL-10 mAb and FITC-labeled anti-human TGF-β1 (BD Biosciences), or isotype-matched control mAbs. The stained cells were acquired by FACSCanto using the FACSDiva software. FACS analysis was performed using FlowJo software. Single, viable cells in the CCR6+CD123+ pDC gates were analyzed. The flow cytometric results are expressed as the percentage and MFI of IL-10-, TGF-β1- or IDO-expressing cells in each gate. Results are expressed as the mean±SEM of cells quantified.
IL10 was alternatively measured in cellular supernatants by ELISA using standard protocols.

## ODN150: 5′-G*G*A*ACAGTTCGTCCAT*G*G*C-3′, PO except * = PS; antisense to p65 of NF-kB mRNA; tested clinically for ulcerative colitis (DNA dG*dG*dA*dAdCdAdGdTdTdCdGdTdCdCdAdT*dG*dG*dC)
TLR7; Imiquimod 5 μg/ml 24 hours, FIGS. 8B, 9A, read-out: IC50, TLR7-mediated IFNα induction
  IC50: > 10 µM
TLR7; imiquimod, FIG. 9B, read-out: IC50, TLR7-mediated IP10 (CXCL10) induction
  IC50: > 10 µM
Purified human pDCs
  pDC differentiation: ↑
Human PBMCs
  IL-1β induction: did not induce
[1]
  clinical effect in ulcerative colitis: some moderate beneficial effects
Mouse macrophages; FIG. 12, COMPOUND (I) up to 10 μM
  TNFα protein expression: induce
Mouse macrophages; FIG. 13, COMPOUND (I) up to 10 μM
  IL-10 protein expression: induce
Human purified pDCs; 3 μM, 48 hours, ELISA, FIG. 18
  IFN-α secretion from pDCs matured by IL-3 treatment: induced
Human purified pDCs; pDC, relative strength, Table 6
  IFN-α: ↑ ↑
[2]; 0.1-100 μM
  activation of the NF-κB construct: Moderate activation
[2]
  ODN concentration at which activation of the NF-κB construct was observed: 100 µM
Human pDCs
  TGF-β1 protein induction: can induce
